Reference: patent US7550425B2, “Diuretic peptide conjugates” (Zealand Pharma A/S, priority 2000, dated 2009)

Experiments:
hORL1 receptor = hORL1 receptor (Homo sapiens, UniProt P41146); assay: Inhibition of forskoline-induced cAMP formation in HEK293 cells expressing human ORL1; format: cell-based; set-up: expressed in transfected cells; host or cells: HEK293; details: transfected HEK293 cells
mouse vas deferens = assay: Mouse vas deferens assay: inhibition of electrically-induced contraction; details: cumulative addition; data not shown
From the text: The compounds of the present invention are pharmacologically active, e.g. as nociceptin agonists or partial agonists, and a useful method of showing activity is described by Hughes J., Kosterlitz H. W., Leslie F. M.: Effect of morphine on adrenergic transmission in the mouse vas deferens. Assessment of agonist and antagonist potencies of narcotic analgesics^[4]. The isolated electrically stimulated mouse vas deferens preparation has been widely used to evaluate the functional pharmacological actions of opioid agonists and antagonists in vitro^[5].
The vas deferens from male NMRI albino mice weighing 30-40 g were placed in a SCHULER organ bath Type 809, Hugo Sachs Elektronik, Germany, and perfused with a 37° C., modified Krebs solution (NaCl 6,9 g/L, KCl 0.35 g/L, KH2PO4 0.16 g/L, NaHCO3 2.1 g/L, Glucose H2O 2.0 g/L, CaCl2 2.52 mL/L). The solution was gassed with carbogen (95% O2 and 5% CO2) throughout the experiment. The tissue was electrically stimulated through two silver electrodes directly in the organ bath using a HSE Stimulator I Type 215. Stimulation of the tissue was performed by applying a supramaximal voltage (15 Volts) in trains of 10 square pulses every 60 s, each of 1 ms duration with a frequency of […]. Concentration-response curves were performed by adding test substances that relax mouse vas deferens smooth muscles cumulatively to the organ baths. The test substances used in the assay were nociceptin in an isotonic saline solution, Compound 1 (as the trifluoroacetate in an isotonic saline solution), Compound 2 (as the trifluoroacetate in an isotonic saline solution), and the hexapeptide Ac-RYYRWK-NH2 (SEQ ID NO: 1) (as the trifluoroacetate in an isotonic saline solution).

Sequence of hORL1 receptor (P41146 whole entry): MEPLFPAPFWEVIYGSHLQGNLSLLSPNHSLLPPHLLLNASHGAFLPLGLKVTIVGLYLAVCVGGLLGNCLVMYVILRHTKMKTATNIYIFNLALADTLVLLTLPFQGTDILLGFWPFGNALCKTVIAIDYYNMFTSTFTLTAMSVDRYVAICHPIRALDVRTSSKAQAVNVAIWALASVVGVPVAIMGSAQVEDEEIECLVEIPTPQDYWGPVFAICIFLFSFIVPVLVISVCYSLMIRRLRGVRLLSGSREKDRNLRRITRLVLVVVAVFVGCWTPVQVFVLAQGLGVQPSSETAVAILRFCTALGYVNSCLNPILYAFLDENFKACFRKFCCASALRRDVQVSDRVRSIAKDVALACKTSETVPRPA

For “Ac-RYYRWKKKKKKK-NH2 [Compound 1, Ac-RYYRWKKKKKKK-NH2]”, the “relative maximum relative to nociceptin” value (hORL1 receptor) was 92% and the “potency order for inhibition of electrically-induced contraction of the mouse vas deferens” value (mouse vas deferens) was “nociceptin>Compound 1=Compound 2>>Ac-RYYRWK-NH2”.
